US8883827B2, “Azole derivatives as WTN pathway inhibitors” (Oslo University Hospital HF, priority 2009, dated 2014)
Like-named read-outs stand apart in the source and are kept apart here.

Assays:
CD45(h) = target: T1, CD45(h) (Homo sapiens, UniProt P08575); assay: Phosphatase screen; type: biochemical; conditions: 0.1% DMSO control = 100%
T1 construct: purchased Millipore (KinaseProfiler service)

YopH(y) = conditions: 10 μM
JNK3(h) = target: T2, JNK3(h) (Homo sapiens, UniProt P53779); assay: Kinase screen; type: biochemical; conditions: 0.1% DMSO control = 100%
T2 construct: purchased Millipore (KinaseProfiler service)

SW480 cells = assay: MTS cell growth assay (Example 27); type: cell-based; conditions: Homo sapiens, 72 h, read-out: IC50, reduction of proliferation
Protocol: Thus, the effect of compound No. 1 on cell growth was tested in SW480 cell lines using MTS analysis (MTS is the colorimetric substrate 3-(4,5-dimethylthiazol-2-yl)-5-(3-carboxymethoxyphenyl)-2-(4-sulfophenyl)-2H-tetrazolium).
3000 cells were seeded on 96 well plates in quadruplicates for each sample. The following day, cell culture medium was mixed with compound No. 1 in various concentrations or with 0.5% DMSO vehicle (control) and added to the wells.
Eight wells of seeded control cells, defining incubation time 0 (t0), were incubated with 20 μl substrate in 100 μl phenol-free D-MEM (Invitrogen) for 3 hours, as described in the CellTiter 96® AQueous Non-Radioactive Cell Proliferation Assay (MTS) protocol (Promega). The A490 value was recorded.
Samples were measured after 72 hours. The following formula was used to determine the single well relative A490 sample values: ((Sample A490−Average A490 to)×100)/(Average A490 0.5% DMSO control−Average A490 t0).

[1] = Compound concentration in plasma and tumors of xenograft mice; type: in vivo; conditions: C.B-Igh-1b/IcrTac-Prkdc scid (CB17/SCID), mouse, intraperitoneal, 24 h after last injection, day 29
Protocol: Daily injections (200 μl, i.p.) followed (two day injection intermissions after every fifth injection day) until experiment end (29 days). At the termination day, 24 hours after the last injection, blood was collected after cardiac puncture and the tumors were removed and weighed. The compound concentration in plasma and tumors was determined using an on-line and off-line Solid Phase Extraction-Capillary Liquid Chromatography (SPE-CapLC) instrumentation coupled to a Time of Flight (TOF) mass spectrometer, as previously described (Wilson, S. R. et al., J. Sep. Sci. 28: 1751-1758, 2005). A Zorbax SB C18 5 μm 150×0.3 mm column (Agilent, […], Calif., USA) was used for separation, and a Knauer K-2600 UV detector was used as a complimentary detector.

IRAK4(h) = target: T3, IRAK4(h) (Homo sapiens, UniProt Q9NWZ3); assay: Kinase screen; type: biochemical; conditions: 0.1% DMSO control = 100%
T3 construct: purchased Millipore (KinaseProfiler service)

PKCα(h) = target: T4, PKCα(h) (Homo sapiens, UniProt P17252); assay: Kinase screen; type: biochemical; conditions: 0.1% DMSO control = 100%
T4 construct: purchased Millipore (KinaseProfiler service)

DUSP22(h) = target: T5, DUSP22(h) (Homo sapiens, UniProt Q9NRW4); assay: Phosphatase screen; type: biochemical; conditions: 0.1% DMSO control = 100%
T5 construct: purchased Millipore (KinaseProfiler service)
T5 sequence (Q9NRW4 whole entry): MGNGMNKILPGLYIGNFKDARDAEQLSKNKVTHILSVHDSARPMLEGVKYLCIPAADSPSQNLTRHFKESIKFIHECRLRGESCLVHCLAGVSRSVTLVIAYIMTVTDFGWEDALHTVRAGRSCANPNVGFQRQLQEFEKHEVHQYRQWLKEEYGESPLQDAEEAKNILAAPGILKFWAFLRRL

canonical Wnt signaling = assay: ST-Luc (SuperTOPFlash) Luciferase assay in HEK293 cells, 30% Wnt3a-CM; type: cell-based; conditions: Homo sapiens, 24 h
Method in brief: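 HEK293 cells were transiently co-transfected with SuperTOPFlash firefly luciferase and pRL-TK Renilla reporters, then treated 24 h with 10 μM compound in 30% Wnt3a-conditioned medium. Dual luciferase activity was read, and percent activity was expressed relative to DMSO control.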

Mnk2(h) = target: T6, Mnk2(h) (Homo sapiens, UniProt Q9HBH9); assay: Kinase screen; type: biochemical; conditions: 0.1% DMSO control = 100%
T6 construct: purchased Millipore (KinaseProfiler service)
T6 sequence (Q9HBH9 whole entry): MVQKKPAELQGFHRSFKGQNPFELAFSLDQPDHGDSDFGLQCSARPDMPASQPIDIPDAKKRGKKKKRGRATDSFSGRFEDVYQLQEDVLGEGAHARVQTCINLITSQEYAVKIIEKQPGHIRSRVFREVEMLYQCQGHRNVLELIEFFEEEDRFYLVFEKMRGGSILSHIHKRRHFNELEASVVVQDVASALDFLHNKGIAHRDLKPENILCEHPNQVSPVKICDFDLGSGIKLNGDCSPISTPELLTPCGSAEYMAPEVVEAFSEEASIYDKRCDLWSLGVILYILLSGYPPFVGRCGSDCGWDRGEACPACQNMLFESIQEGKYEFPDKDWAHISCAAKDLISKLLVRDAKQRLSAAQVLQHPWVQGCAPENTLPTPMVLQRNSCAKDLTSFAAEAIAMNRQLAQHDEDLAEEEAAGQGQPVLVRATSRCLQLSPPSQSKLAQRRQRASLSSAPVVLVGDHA

TAK1(h) = target: T7, TAK1(h) (Homo sapiens, UniProt O43318); assay: Kinase screen; type: biochemical; conditions: 0.1% DMSO control = 100%
T7 construct: purchased Millipore (KinaseProfiler Service)

PKCθ(h) = target: T8, PKCθ(h) (Homo sapiens, UniProt Q04759); assay: Kinase screen; type: biochemical; conditions: 0.1% DMSO control = 100%
T8 construct: purchased Millipore (KinaseProfiler service)

PTPb(h) = target: T9, PTPb(h) (Homo sapiens, UniProt P23467); assay: Phosphatase screen; type: biochemical; conditions: 0.1% DMSO control = 100%
T9 construct: purchased Millipore (KinaseProfiler service)

MST1(h) = target: T10, MST1(h) (Homo sapiens, UniProt Q13043); assay: Kinase screen; type: biochemical; conditions: 0.1% DMSO control = 100%
T10 construct: purchased Millipore (KinaseProfiler service)

NEK2(h) = target: T11, NEK2(h) (Homo sapiens, UniProt P51955); assay: Kinase screen; type: biochemical; conditions: 0.1% DMSO control = 100%
T11 construct: purchased Millipore (KinaseProfiler service)
T11 sequence (P51955 whole entry): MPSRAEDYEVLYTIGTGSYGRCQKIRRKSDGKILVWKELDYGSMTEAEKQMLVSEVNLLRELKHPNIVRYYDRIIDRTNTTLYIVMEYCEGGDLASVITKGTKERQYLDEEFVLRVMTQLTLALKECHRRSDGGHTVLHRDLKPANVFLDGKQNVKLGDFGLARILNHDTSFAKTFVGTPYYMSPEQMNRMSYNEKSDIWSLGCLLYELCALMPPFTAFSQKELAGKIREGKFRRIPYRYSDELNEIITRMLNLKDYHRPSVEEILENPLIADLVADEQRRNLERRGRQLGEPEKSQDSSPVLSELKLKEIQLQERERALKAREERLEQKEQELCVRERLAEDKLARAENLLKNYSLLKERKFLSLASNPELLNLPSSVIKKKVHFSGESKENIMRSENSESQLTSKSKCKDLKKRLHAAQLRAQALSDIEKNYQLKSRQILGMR

[2] = target: T12, PI3 Kinase (p110b/p85a)(h) (Homo sapiens, UniProt P42338); assay: Kinase screen; type: biochemical; conditions: 0.1% DMSO control = 100%
T12 construct: purchased Millipore (KinaseProfiler service)
T12 sequence (P42338 whole entry): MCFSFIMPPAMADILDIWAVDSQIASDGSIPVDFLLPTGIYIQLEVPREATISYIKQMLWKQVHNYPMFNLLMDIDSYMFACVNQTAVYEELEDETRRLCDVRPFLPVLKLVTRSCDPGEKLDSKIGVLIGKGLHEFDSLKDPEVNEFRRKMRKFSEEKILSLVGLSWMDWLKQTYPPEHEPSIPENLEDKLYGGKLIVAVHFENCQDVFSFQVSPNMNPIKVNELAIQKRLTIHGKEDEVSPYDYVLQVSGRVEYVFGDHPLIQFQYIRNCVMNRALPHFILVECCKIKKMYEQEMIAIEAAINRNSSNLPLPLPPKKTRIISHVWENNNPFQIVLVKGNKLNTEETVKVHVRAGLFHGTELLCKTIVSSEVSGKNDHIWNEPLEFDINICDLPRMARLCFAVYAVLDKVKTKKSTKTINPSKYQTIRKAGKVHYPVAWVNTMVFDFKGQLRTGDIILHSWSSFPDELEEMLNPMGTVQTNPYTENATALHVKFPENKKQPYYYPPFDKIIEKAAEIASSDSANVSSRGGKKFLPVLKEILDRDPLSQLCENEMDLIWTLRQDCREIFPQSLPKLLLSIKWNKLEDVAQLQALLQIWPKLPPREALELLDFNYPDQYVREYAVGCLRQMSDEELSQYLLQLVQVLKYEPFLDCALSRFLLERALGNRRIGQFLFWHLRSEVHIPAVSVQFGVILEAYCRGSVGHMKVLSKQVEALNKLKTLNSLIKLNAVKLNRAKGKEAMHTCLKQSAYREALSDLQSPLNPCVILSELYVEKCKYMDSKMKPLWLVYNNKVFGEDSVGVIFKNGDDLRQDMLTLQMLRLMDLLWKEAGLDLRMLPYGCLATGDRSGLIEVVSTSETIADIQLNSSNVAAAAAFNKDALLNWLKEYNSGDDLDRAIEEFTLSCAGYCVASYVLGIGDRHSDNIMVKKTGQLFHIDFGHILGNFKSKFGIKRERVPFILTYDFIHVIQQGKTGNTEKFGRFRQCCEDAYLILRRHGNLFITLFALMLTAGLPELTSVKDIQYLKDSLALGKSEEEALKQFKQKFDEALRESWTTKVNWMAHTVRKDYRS
T12 sequence (P27986 whole entry partner): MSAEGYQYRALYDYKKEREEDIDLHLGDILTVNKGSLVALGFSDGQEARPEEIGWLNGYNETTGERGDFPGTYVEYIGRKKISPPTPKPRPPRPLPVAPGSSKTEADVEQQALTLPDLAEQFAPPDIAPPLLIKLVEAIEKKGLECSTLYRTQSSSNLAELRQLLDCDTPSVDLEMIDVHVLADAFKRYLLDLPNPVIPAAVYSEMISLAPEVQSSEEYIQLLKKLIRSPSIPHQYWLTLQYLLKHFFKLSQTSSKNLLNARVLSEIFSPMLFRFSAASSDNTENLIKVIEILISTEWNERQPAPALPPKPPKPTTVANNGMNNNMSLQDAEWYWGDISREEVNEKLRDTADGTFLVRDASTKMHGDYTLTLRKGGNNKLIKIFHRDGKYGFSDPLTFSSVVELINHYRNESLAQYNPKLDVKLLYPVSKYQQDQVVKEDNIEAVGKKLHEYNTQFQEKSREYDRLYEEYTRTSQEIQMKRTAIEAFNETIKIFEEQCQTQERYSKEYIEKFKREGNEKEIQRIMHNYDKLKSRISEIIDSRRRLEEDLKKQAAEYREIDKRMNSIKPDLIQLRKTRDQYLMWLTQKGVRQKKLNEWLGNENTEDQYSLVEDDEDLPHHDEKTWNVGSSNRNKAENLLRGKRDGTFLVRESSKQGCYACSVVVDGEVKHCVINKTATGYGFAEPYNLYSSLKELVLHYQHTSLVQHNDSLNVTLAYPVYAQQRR

T1 sequence (P08575 26-1306): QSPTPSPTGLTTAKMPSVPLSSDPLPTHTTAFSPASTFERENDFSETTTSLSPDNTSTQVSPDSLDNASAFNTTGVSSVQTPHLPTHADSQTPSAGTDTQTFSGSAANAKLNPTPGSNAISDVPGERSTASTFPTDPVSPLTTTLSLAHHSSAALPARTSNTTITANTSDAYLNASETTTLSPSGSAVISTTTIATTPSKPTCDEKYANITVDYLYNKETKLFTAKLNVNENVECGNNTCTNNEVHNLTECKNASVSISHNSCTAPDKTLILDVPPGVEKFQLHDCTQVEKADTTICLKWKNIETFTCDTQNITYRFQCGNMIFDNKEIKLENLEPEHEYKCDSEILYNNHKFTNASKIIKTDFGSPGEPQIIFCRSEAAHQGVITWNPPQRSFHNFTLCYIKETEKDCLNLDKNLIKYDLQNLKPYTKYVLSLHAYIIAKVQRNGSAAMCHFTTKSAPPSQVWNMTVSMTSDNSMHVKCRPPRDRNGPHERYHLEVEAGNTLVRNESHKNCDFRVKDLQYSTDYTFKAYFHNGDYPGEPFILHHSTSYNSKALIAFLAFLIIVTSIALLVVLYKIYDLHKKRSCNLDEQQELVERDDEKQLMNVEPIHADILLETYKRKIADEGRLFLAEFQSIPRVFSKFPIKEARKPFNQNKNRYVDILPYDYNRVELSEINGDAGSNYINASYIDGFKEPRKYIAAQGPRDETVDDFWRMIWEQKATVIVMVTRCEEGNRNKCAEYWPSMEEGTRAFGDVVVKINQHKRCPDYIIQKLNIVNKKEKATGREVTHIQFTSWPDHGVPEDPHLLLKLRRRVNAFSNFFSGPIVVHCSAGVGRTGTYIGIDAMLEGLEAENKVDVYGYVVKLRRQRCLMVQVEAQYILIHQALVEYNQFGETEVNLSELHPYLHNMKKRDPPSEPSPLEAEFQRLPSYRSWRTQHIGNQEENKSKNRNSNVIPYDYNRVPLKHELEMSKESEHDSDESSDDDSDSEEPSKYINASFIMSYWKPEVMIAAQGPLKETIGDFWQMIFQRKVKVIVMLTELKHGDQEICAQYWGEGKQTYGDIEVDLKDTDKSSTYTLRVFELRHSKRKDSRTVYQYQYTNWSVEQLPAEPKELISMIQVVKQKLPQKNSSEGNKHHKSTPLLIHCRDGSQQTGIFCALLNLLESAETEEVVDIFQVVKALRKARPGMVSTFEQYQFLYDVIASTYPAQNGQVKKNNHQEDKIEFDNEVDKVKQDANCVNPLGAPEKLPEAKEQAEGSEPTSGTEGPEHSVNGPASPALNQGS

COc1ccc(-n2c(SCc3nc(-c4ccc(C)cc4)no3)nnc2-c2ccncc2)cc1 [Compound 1]
activity at 10 µM (CD45(h)): 108%
Activity (%) (YopH(y)): 94%
activity at 10 µM (JNK3(h)): 93%
IC50 (SW480 cells): ~11.5 µM
concentration at 24 h after the last injection ([1]; plasma, 150 mg/kg, 150 mg/kg group, read-out: concentration in plasma): 1300 ng/mL
concentration at 24 h after the last injection ([1]; plasma, 300 mg/kg, 300 mg/kg group, read-out: concentration in plasma): 1300 ng/mL
concentration at 24 h after the last injection ([1]; tumor, 150 mg/kg, 150 mg/kg cohort, read-out: concentration in tumors, mean): 11800 ng/g
concentration at 24 h after the last injection ([1]; tumor, 150 mg/kg, 150 mg/kg cohort, read-out: concentration in tumors, range): 1900 to 32900 ng/g
concentration at 24 h after the last injection ([1]; tumor, 300 mg/kg, 300 mg/kg cohort, read-out: concentration in tumors, mean): 2400 ng/g
concentration at 24 h after the last injection ([1]; tumor, 300 mg/kg, 300 mg/kg cohort, read-out: concentration in tumors, range): 900 to 4900 ng/g
activity at 10 µM (IRAK4(h)): 98%
activity at 10 µM (PKCα(h)): 105%
activity at 10 µM (DUSP22(h)): 101%
activity at 10 µM (canonical Wnt signaling; HEK293, 10 μM compound, 30% Wnt3a-CM, relative to DMSO control): 15.4%
IC50 (canonical Wnt signaling; HEK293, 30% Wnt3a-CM, 0.1-10 μM, read-out: IC50, reduction of canonical Wnt signaling by the ST-Luc assay): 1 µM
activity at 10 µM (Mnk2(h)): 108%
activity at 10 µM (TAK1(h)): 104%
activity at 10 µM (PKCθ(h)): 109%
activity at 10 µM (PTPb(h)): 106%
activity at 10 µM (MST1(h)): 106%
activity at 10 µM (NEK2(h)): 94%
activity at 10 µM [2]: 94%
